Measurements taken from patent US4288629A, “1-Hydroxymethyl-11-deoxy-15-hydroxy-prosten-1-ol-derivatives” (American Cyanamid Company, priority 1980, dated 1981).

Legend:
Type in all cases: in vivo
5-HT = assay: KONZETT DATA, 5-HT; settings: spasmogen 5-HT
Hist = assay: KONZETT DATA, Hist; settings: spasmogen Hist
Ach = assay: KONZETT DATA, Ach; settings: spasmogen Ach

## CCCCCC(C)(O)/C=C/C1C(O)CC(=O)C1C/C=C\CCCCO (racemic) [dl-1,11,15-trihydroxymethyl-9-oxo-15-methyl-5-cis-13-trans prostadiene]
5-HT
  5-HT (ED50 g/kg): 0.0083 g/kg
Hist
  Hist (ED50 g/kg): 0.00075 g/kg
Ach
  Ach (ED50 g/kg): 0.0043 g/kg
